Active and inactive are the calls of the source.
Columns and labels:
Protein RecA = target: T1, Protein RecA (Mycobacterium tuberculosis, UniProt P9WHJ3); assay: Fluorescence Cell-Free Homogeneous Dose Retest to Identify Inhibitors of RecA-Intein Splicing Activity. [Related pubchem assays (depositor defined):AID2097, AID2223, AID489010, AID492950]; type: functional
T1 sequence (P9WHJ3 whole entry): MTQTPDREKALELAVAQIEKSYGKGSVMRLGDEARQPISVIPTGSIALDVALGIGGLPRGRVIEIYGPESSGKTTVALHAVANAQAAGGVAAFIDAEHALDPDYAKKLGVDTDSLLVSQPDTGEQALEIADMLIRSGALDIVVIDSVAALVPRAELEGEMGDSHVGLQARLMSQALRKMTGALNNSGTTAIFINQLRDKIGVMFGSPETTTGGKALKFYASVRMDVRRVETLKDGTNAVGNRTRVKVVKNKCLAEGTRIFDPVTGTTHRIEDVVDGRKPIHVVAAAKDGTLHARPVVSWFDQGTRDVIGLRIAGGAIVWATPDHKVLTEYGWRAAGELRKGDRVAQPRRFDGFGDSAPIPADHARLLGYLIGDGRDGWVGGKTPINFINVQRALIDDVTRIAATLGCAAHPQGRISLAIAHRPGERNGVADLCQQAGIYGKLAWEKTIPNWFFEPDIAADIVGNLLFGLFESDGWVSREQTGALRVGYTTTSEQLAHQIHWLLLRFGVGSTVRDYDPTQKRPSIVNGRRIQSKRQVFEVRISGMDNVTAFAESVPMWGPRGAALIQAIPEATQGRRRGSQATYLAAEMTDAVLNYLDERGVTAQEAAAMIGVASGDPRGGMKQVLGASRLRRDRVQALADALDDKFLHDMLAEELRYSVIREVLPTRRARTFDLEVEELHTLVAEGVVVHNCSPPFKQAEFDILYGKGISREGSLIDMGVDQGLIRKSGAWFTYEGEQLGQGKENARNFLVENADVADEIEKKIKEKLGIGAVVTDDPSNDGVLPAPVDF

[1] = target: T2, Replicative DNA helicase DnaB (Mycobacterium tuberculosis, UniProt P9WMR3); assay: DnaB intein splicing inhibitors, dose response, biochemical, cell-free fluorescence (AID 449749); type: functional
T2 sequence (P9WMR3 whole entry): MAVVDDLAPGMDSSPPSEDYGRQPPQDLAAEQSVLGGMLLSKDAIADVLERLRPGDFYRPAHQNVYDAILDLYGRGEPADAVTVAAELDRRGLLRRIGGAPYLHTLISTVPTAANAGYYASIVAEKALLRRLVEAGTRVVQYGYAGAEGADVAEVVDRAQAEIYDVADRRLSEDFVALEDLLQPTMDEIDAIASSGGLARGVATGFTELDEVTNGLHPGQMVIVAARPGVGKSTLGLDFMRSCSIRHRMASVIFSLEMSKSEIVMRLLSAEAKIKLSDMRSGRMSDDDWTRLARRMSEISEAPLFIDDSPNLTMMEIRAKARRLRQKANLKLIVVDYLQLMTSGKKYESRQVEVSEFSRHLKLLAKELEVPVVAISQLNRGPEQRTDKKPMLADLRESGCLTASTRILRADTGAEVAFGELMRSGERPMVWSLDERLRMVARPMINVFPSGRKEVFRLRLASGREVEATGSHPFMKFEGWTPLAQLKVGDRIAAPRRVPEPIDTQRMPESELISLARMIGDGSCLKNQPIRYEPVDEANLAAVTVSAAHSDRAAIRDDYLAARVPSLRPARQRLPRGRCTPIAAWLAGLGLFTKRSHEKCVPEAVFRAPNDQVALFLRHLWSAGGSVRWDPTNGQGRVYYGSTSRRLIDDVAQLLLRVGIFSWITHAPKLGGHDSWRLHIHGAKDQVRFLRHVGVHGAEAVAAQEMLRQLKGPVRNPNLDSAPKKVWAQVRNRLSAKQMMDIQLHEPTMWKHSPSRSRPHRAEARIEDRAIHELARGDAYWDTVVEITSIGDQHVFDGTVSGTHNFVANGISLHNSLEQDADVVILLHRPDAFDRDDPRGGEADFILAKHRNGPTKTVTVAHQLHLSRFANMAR

[2] = target: SWI/SNF-related matrix-associated actin-dependent regulator of chromatin subfamily A member 2 (Homo sapiens, UniProt P51531); assay: Luminescence-based cell-based high throughput dose response assay to identify activators of the function of SWI/SNF related, matrix associated, actin dependent regulator of chromatin, subfamily a, member 2 (SMARCA2, BRM).; type: functional
[3] = Counterscreen for activators of the function of SWI/SNF related, matrix associated, actin dependent regulator of chromatin, subfamily a, member 2 (SMARCA2, BRM): Luminescence-based cell-based high throughput dose response assay to identify non-selective compounds using the VP16 reporter assay.; type: functional
[4] = off-target signal loss in HeLa-CEM21 co-culture – HeLa F-luc CTL cells, cherry-picked, counter-screen for HIV-1 Env fusion inhibitor project, dose response (AID 652040); type: functional, cell-based;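 note: potency for signal decrease marking cytotoxic or nonspecific inhibition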
[5] = inhibitors of HIV Env-driven cell fusion, dose response, cherry-pick (AID 652057); type: functional, cell-based
[6] = CEM21 lymphoblast cell cytotoxicity, dose response, cytotoxicity control for viral fusion inhibitor project, CellTiter-Glo luminescence, cherry-picked (AID 652042); type: functional, cell-based;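 note: potency for signal decrease meaning cytotoxicity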
[7] = inhibitors of clade B AD8 Env fusion, dose response, cell-based, cherry-pick (AID 652062); type: functional;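 note: luciferase signal from cell-cell fusion driven by HIV-1 clade B AD8 Env; potency is for inhibitors of fusion seen as a drop in luminescence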
[8] = target: T3, Oxysterols receptor LXR-beta (Homo sapiens, UniProt P55055); type: functional, cell-based;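 note: agonist activity at LXR measured by a cell-based luminescence readout across a dose range, run as a counterscreen for daf-12 agonists; HEK293 cells with Gal4-LXR fusion and GAL4-driven luciferase reporter; potency for activation of Gal4-LXR reporter so compounds are agonists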
T3 sequence (P55055 whole entry): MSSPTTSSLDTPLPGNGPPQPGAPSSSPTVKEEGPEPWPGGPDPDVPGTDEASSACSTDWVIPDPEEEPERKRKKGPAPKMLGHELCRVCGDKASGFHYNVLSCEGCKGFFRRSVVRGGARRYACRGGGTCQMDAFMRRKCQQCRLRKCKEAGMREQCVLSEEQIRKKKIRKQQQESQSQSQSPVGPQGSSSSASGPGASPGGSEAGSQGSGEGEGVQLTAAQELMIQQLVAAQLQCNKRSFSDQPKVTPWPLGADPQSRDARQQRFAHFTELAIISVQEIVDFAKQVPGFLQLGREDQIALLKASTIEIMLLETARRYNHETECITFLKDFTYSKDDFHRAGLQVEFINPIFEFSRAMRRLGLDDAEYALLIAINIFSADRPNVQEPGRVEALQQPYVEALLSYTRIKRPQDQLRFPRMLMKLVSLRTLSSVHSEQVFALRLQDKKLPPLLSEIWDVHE

[9] = target: G-protein coupled receptor 55 (Homo sapiens, UniProt Q9Y2T6); assay: GPR55 antagonists blocking LPI-driven arrestin recruitment, primary screen, imaging, U2OS, beta-arrestin-GFP, LPI agonist (AID 2013); type: functional;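 note: antagonist potency measured as reduced agonist-driven arrestin aggregation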
[10] = system: Streptococcus sp. 'group A'; assay: growth inhibition of control SK(-) GAS strain, dose response, counter-screen for streptokinase expression inhibitor project, luminescence, kanamycin, BacTiterGlo, confirmation (AID 1900); type: functional, organism-based
Streptococcus = assay: Group A Streptococcus viability loss, dose response, counter-screen for streptokinase expression inhibitor project, luminescence, BacTiterGlo (AID 1915); type: functional, organism-based;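 note: potency for reduction of bacterial viability or growth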
HEK293 [11] = assay: cells; type: functional, cell-based; conditions: Homo sapiens
[12] = cytotoxicity in HPDE-C7 cells, cell-based, fluorescence, HTS (AID 430); type: functional; conditions: Homo sapiens
Streptokinase A = target: T4, Streptokinase A (Streptococcus pyogenes serotype M1, UniProt P10520); assay: S. pyogenes streptokinase expression inhibitors, potency, dose response, plasminogen activation absorbance, OD405 (AID 1914); type: functional, Streptococcus pyogenes M1 GAS;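 note: secreted streptokinase activity via plasminogen activation per viability signal from cell pellet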
T4 sequence (P10520 whole entry): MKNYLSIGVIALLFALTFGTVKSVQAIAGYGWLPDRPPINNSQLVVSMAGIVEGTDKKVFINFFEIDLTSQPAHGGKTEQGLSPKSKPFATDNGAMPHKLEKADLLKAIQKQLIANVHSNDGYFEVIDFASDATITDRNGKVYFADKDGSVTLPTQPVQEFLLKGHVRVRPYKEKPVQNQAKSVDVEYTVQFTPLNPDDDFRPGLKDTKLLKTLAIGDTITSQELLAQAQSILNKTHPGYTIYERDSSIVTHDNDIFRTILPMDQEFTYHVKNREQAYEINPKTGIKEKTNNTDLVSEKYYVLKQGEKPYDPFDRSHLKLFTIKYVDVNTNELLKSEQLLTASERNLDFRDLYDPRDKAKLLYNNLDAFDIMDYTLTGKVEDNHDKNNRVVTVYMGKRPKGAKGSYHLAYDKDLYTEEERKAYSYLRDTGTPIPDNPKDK

HEK293 [13] = assay: cells; type: functional, cell-based; conditions: Homo sapiens; remark: listed apart in the source
HEK293 [14] = assay: NOD1 signaling inhibitors, primary screen, cell-based, luminescence, uHTS (AID 1578); type: functional; conditions: Homo sapiens
HEK293 [15] = assay: NOD2 signaling inhibitors in MDP-stimulated cells, cell-based, uHTS, luminescence (AID 2001); type: functional; conditions: Homo sapiens
[16] = cytotoxicity in KRAS-transformed pancreatic duct cells, primary screen, cell-based, fluorescence, HTS (AID 431); type: functional; conditions: Homo sapiens;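 note: cell line used: HPDE-C7K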

G-protein coupled receptor 55, sequence (Q9Y2T6 whole entry): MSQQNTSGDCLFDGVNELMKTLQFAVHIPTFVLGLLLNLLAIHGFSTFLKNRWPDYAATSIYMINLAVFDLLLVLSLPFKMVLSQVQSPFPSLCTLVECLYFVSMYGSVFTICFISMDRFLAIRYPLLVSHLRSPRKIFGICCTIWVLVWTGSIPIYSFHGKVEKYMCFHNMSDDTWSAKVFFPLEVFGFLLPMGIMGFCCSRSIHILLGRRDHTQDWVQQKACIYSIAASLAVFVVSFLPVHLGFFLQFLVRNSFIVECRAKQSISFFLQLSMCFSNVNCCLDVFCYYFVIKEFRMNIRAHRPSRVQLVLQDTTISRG
SWI/SNF-related matrix-associated actin-dependent regulator of chromatin subfamily A member 2, sequence (P51531 whole entry): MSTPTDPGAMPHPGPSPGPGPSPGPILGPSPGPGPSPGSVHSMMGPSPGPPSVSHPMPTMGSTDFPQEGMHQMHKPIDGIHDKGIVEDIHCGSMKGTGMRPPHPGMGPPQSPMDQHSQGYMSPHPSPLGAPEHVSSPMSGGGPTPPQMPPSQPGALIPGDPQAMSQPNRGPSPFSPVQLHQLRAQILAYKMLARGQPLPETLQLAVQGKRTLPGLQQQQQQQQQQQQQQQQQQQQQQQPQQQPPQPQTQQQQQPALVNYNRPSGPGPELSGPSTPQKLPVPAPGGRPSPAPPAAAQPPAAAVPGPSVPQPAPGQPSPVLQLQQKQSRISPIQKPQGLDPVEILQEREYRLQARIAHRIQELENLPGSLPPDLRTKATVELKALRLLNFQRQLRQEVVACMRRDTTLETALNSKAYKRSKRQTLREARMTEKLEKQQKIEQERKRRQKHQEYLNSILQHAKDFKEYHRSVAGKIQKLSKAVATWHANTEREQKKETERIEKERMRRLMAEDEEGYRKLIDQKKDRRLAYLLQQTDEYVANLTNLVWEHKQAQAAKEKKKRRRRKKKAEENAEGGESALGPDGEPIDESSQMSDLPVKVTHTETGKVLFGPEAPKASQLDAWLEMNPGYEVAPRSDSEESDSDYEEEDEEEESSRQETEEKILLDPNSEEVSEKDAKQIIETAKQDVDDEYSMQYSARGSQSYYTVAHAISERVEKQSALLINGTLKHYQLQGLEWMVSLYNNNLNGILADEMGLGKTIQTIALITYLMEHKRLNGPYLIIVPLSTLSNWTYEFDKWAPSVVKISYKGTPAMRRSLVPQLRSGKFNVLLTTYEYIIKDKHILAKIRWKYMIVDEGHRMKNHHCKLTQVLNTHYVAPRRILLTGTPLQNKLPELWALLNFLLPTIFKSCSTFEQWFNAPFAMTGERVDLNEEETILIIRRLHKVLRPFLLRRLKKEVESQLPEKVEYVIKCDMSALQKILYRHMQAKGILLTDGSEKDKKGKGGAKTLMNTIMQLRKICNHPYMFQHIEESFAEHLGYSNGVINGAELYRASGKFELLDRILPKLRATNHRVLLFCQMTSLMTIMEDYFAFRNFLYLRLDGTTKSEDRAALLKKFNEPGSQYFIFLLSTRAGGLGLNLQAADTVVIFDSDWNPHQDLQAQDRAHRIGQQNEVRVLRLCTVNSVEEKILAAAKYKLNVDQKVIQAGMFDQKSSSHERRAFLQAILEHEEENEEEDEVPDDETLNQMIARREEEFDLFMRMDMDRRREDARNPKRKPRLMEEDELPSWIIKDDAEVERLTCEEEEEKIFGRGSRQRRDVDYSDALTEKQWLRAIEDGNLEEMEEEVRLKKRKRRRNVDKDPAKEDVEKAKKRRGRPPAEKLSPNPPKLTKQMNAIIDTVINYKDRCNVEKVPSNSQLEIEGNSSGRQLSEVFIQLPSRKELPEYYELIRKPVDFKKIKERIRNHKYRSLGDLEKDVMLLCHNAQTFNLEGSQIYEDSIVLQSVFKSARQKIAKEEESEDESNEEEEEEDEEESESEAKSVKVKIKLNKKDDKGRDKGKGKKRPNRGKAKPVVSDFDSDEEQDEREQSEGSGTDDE

Compound: Cc1cc(C)n2nc(CNS(=O)(=O)c3c(F)c(F)c(F)c(F)c3F)nc2n1
- EC50 (Protein RecA): 10.8 µM (active)
- AC50 [1]: 38.5 µM (active)
- EC50 [2]: > 91.2 µM (inactive)
- EC50 [3]: > 91.2 µM (inactive)

Compound: c1ccc(Cc2cnc(N3CCN(Cc4csc5ccccc45)CC3)nc2)cc1
- AC50 [4]: 65 µM (active)
- AC50 [5]: 2.86 µM (active)
- AC50 [6]: 47.5 µM (active)
- AC50 [7]: 2.98 µM (active)

Compound: Cc1ccc(COC(=O)c2cc(S(=O)(=O)N3CCCCC3)ccc2N2CCOCC2)cc1
- AC50 [4]: > 70 µM (inactive)
- AC50 [5]: 19.8 µM (active)
- AC50 [6]: 68.1 µM (active)
- AC50 [7]: 10.6 µM (active)

Compound: CCc1ccc(C2CC(c3ccco3)=NN2S(C)(=O)=O)cc1 (stereo not given)
- EC50 [8]: > 67.5 µM (inactive)

Compound: COc1ccc(C2c3ccc(O)cc3Oc3ncn(CC(C)C)c(=N)c32)cc1 (stereo not given)
- IC50 [9]: 2.27 µM (active)

Compound: CCCSc1ncc(Cl)c(C(=O)Nc2ccc(S(=O)(=O)N3CC(C)OC(C)C3)cc2)n1 (stereo not given)
- IC50 [9]: 5.75 µM (active)

Compound: Cc1conc1NC(c1cccs1)c1ccc2cccnc2c1O (stereo not given)
- EC50 [10]: 1.93 µM (active)
- EC50 (Streptococcus): 7.33 µM (active)
- IC50 (HEK293 [11]): > 20 µM (inactive)
- EC50 [12]: 10.2 µM (active)
- EC50 (Streptokinase A): > 150 µM (not active)
- IC50 (HEK293 [13]): 4.74 µM (active)
- EC50 (HEK293 [14]): > 20 µM (inactive)
- IC50 (HEK293 [15]): 6.1 µM (active)
- EC50 [16]: 5.68 µM (active)

Compound: O=C(NC(=S)NC1CCN(Cc2ccccc2)CC1)c1ccc(F)cc1
- IC50 [9]: 4.67 µM (active)

Source: ChEMBL document CHEMBL1201862, “PubChem BioAssay data set” (2004)
